These results are taken from US20190010217A1, “MOBILIZING HIV-INFECTED CELLS FROM LYMPHATIC RESERVOIRS” (INDIANA UNIVERSITY RESEARCH & TECHNOLOGY CORPORATION, priority 2016, published 2019).

“Also recorded” adds a separate entry of the source.

For test [1], the system named is Nef-ER T1 cells. Kind of test: Adhesion of Nef-ER T cells to endothelial cells (HUVEC co-culture, FACS). The test is classed as cell-based. The settings on record: HIV-Nef expressing T cells (Nef-ER T1) on HUVECs; 10 μM atorvastatin pre-incubation at least 12 hours; FIG. 5. On the procedure:
Nef was activated in Nef-ER cells by culturing them with RPMI1640+10% FBS (fetal bovine serum) and 1 μM 4-hydrotamoxifen for at least 6 hours or overnight at 37° C. For inhibitor use, the Nef-ER cells were pre-incubated for at least 12 hours with 10 μM atorvastatin. Other inhibitors may require shorter pre-incubations.
Approximately 100K HUVECS were seeded per well in a collagen-coated 6-well plate. Cells were incubated overnight in EGM2(LONZA) medium. Nef-ER cells were stained using 5 μM Calcein AM (Ref C3100MP, Fischer Scientific) in 1 mL of staining solution and incubated for 30 minutes at 37° C. The cells were centrifuged at 300 g for 5 min, and the cell pellet was resuspended in 2 mL RPMI+10% FBS. Cells were centrifuged at 300 g for 5 min and the supernatant was removed.
After staining, 1 μL of 1 mM 4-Hydrotamoxifen per ml of EGM2(LONZA) medium was added for final concentration of 1 μM. Stained T-cells were resuspended in EGM2 media at final concentration of 250,000 cells per ml. 250,000 stained T-cells were added to each well of 6-well plate of HUVECs for co-culture (with or without 10 μM atorvastatin to maintain inhibition) and incubated for 60 minutes. The plate was gently shaken one time after 30 minutes. Cells were washed very gently 3 times with PBS (phosphate buffered saline). Cells were then trypsinized and analyzed by fluorescence activated cell sorting (FACS).

For test [2], the system named is GPCRs-Gαi signaling. The settings on record: pretreatment of lymphocytes with PTX; cited from earlier work.
Test [3] concerns the target S1P1 (Homo sapiens, UniProt P21453). Kind of test: Beta arrestin-TANGO assay (luciferase reporter) in HTLA cells transfected with Nef. For orientation: A reporter such as luciferase makes a cellular process visible.
Text: The role of beta arrestin in GPCR regulation, including S1P1 allows for the design and use of an S1P1 Arrestin-Tango expressing cell line (TANGO construct commercially available from AddGene) to test S1P1 signaling and its inhibitors. […] Upon activation of the S1P1 by an agonist, β-arrestin is recruited to the C-terminus of the receptor. This is followed by cleavage of the GPCR fusion protein at the TEV protease site. Cleavage results in the release of the tTA transcription factor, which after transport to the nucleus, activates transcription of the luciferase reporter gene. Thus, potential SNP1 inhibitors can be screened using the S1P1 Arresting Tango assay looking for an increase of luciferase activity indicating an increase in S1P1 signalling.
The role of beta arrestin in GPCR regulation, including S1P1, allows for the design and use of an S1P1 Arrestin-Tango expressing cell line (TANGO construct commercially available from AddGene) to test S1P1 signaling and its inhibitors. […] Upon activation of the S1P1 by an agonist, β-arrestin is recruited to the C-terminus of the receptor. This is followed by cleavage of the GPCR fusion protein at the TEV protease site. Cleavage results in the release of the tTA transcription factor, which after transport to the nucleus, activates transcription of the luciferase reporter gene.
Specifically, HTLA cells were transfected with NEF wt and analyzed for luciferase activity in response to increasing concentrations of sphingosine-phosphate (S1P).

Sequence of S1P1 (P21453 whole entry): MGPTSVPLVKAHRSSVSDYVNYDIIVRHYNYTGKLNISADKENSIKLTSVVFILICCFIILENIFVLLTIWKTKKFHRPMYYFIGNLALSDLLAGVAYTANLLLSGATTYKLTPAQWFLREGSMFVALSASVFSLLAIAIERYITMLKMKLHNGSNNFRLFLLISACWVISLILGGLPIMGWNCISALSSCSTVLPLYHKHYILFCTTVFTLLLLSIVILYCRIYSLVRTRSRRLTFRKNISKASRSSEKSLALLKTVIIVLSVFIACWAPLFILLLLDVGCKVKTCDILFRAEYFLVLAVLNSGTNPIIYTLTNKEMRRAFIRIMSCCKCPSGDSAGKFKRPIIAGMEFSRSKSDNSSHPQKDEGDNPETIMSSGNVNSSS

As to `CC(C)c1c(C(=O)Nc2ccccc2)c(-c2ccccc2)c(-c2ccc(F)cc2)n1CC[C@@H](O)C[C@@H](O)CC(=O)O` [statin, atorvastatin], in test [1], the T cell adhesion result was “reduces T cell adhesion”.

Turning to Pertussis toxin, the “retention of T cells in lymph nodes by fingolimod” value in test [2] was “prevented the retention of T cells in lymph nodes”.

For sphingosine-phosphate [S1P], the “β-arrestin recruitment (luciferase activity) in response to increasing concentrations” value in test [3] (HTLA cells transfected with NEF wt, increasing concentrations of S1P, FIG. 7) is on record as “more activation”. The “β-arrestin activation (luciferase activity)” value in test [3] (HTLA cells transfected with Nef, treated with 1mM S1P and/or FTY720, FIG. 8) is on record as “significantly more activation; also recorded: increase in β-arrestin activation”.
